Laboratory results as given in patent US11072588B2, “Barbituric acid derivatives comprising cationic and lipophilic groups” (UNIVERSITETET I TROMSØ—NORGES ARKTISKE UNIVERSITET, priority 2017, dated 2021).
≈ marks a conversion by molar mass, not a printed value.

Assays:
E. coli 50639799 = test: MIC, multi-resistant clinical isolate; format: cell-based, Escherichia coli
E. coli 50579417 = test: MIC, multi-resistant clinical isolate; format: cell-based, Escherichia coli
E. coli 50857972 = test: MIC, multi-resistant clinical isolate; format: cell-based, Escherichia coli
E. coli 50676002 = test: MIC, multi-resistant clinical isolate; format: cell-based, Escherichia coli
E. faecium 50673722 = test: MIC, multi-resistant clinical isolate; format: cell-based, Enterococcus faecium
Method: (§1) Working solutions of the test derivatives were prepared with up to 100% DMSO and stored at −20° C. If necessary, the solutions were heated to 40-80° C. before testing to facilitate complete dissolution. Double-distilled water was used in all dilutions prepared. […] A microdilution susceptibility test was used for MIC determination according to Clinical and Laboratory Standards Institute, “Methods for Dilution Antimicrobial Sisceptibility Tests for Bacteria That Graw Aerobically”, Approved Standard M07-A9, edition 2012, with modifications as described by Igumnova et al (Bioorg Med Chem, 2016, 24 (22), 5884-5894).
(§2) Briefly, the bacterial inoculum was adjusted to approximately 2.5-3×10^4 cells/mL in Mueller-Hinton broth (MHB, Difco Laboratories, USA), and incubated in a ratio of 1:1 with test derivatives in polystyrene 96-well flat-bottom microplates (NUNC, Roskilde, Denmark). Positive growth control (without test derivatives) and negative control (without bacteria) were included. The reference antibiotic was oxytetracycline hydrochloride (Sigma Aldrich, Saint Louis, Mo., USA). The microplates were incubated in an EnVision microplate reader (Perkin-Elmer, Turku, Finland) placed in an incubator set to 35° C. for 48 h. The MIC value was defined as the lowest concentration of derivative resulting in no bacterial growth as determined by OD600 measurement. All derivatives were tested in three parallels.
(§3) The MIC was determined as explained above with some exceptions; working solutions of test derivatives were prepared from concentrated DMSO stocks stored at room temperature, the density of the bacterial inoculum was increased 40× to 1-1.2×10^6 cells/mL, enterococci were incubated in Brain Heart Infusion broth (BHIB, Difco Laboratories, USA), the microplates were incubated for 24 h, and the derivatives were tested in four parallels.

E. faecium TUH50-22 = test: MIC, multi-resistant clinical isolate; format: cell-based, Enterococcus faecium
Method: as §1, §2, §3

E. faecium K36-18 = test: MIC, multi-resistant clinical isolate; format: cell-based, Enterococcus faecium
Method: as §1, §2, §3

E. faecium 50758899 = test: MIC, multi-resistant clinical isolate; format: cell-based, Enterococcus faecium
Method: as §1, §2, §3

E. faecium 50901530 = test: MIC, multi-resistant clinical isolate; format: cell-based, Enterococcus faecium
Method: as §1, §2, §3

[1] = test system: panel of 30 multi-resistant clinical isolates of Gram-positive and Gram-negative bacteria; test: MIC screening, ranges over the panel of clinical isolates; format: cell-based; conditions: read-out: MIC values against all the 30 multi-resistant clinical isolates
Method: as §1, §2, §3

[2] = test system: Escherichia coli ATCC 25922; test: MIC assay, antibiotic susceptible reference strain; format: cell-based; conditions: Escherichia coli, ATCC25922, read-out: Antimicrobial activity (MIC) E. c
In short: (§4)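 Broth microdilution followed CLSI M07-A9 with modifications: inoculum ~2.5-3×10^4 cells/mL in Mueller-Hinton broth, mixed 1:1 with test derivative, incubated 48 h at 35 °C. MIC was the lowest concentration giving no growth by OD600, tested in three parallels, with oxytetracycline as reference antibiotic.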

[3] = test system: Staphylococcus aureus ATCC 9144; test: MIC assay, antibiotic susceptible reference strain; format: cell-based; conditions: Staphylococcus aureus, ATCC9144, read-out: Antimicrobial activity (MIC) S. a
In short: as §4

[4] = test system: Pseudomonas aeruginosa PA01, DSM 19880 (ATCC 15692); test: MIC assay, antibiotic susceptible reference strain; format: cell-based; conditions: Pseudomonas aeruginosa, read-out: Antimicrobial activity (MIC) P. a
In short: as §4

K. pneumoniae 50667959 = test: MIC, multi-resistant clinical isolate; format: cell-based, Klebsiella pneumoniae
Method: as §1, §2, §3

K. pneumoniae K66-45 = test: MIC, multi-resistant clinical isolate; format: cell-based, Klebsiella pneumoniae
Method: as §1, §2, §3

K. pneumoniae K47-25 = test: MIC, multi-resistant clinical isolate; format: cell-based, Klebsiella pneumoniae
Method: as §1, §2, §3

K. pneumoniae 50625602 = test: MIC, multi-resistant clinical isolate; format: cell-based, Klebsiella pneumoniae
Method: as §1, §2, §3

K. pneumoniae 50531633 = test: MIC, multi-resistant clinical isolate; format: cell-based, Klebsiella pneumoniae; conditions: K. pneumoniae 50531633, resistant to colistin
Method: as §1, §2, §3

P. aeruginosa 50692520 = test: MIC, multi-resistant clinical isolate; format: cell-based, Pseudomonas aeruginosa
Method: as §1, §2, §3

P. aeruginosa K34-73 = test: MIC, multi-resistant clinical isolate; format: cell-based, Pseudomonas aeruginosa
Method: as §1, §2, §3

P. aeruginosa K34-7 = test: MIC, multi-resistant clinical isolate; format: cell-based, Pseudomonas aeruginosa
Method: as §1, §2, §3

P. aeruginosa K44-24 = test: MIC, multi-resistant clinical isolate; format: cell-based, Pseudomonas aeruginosa
Method: as §1, §2, §3

P. aeruginosa 50692172 = test: MIC, multi-resistant clinical isolate; format: cell-based, Pseudomonas aeruginosa
Method: as §1, §2, §3

[5] = Escherichia coli, read-out: Antimicrobial activity (MIC)
[6] = Enterococcus faecium, read-out: Antimicrobial activity (MIC)
[7] = Klebsiella pneumoniae, read-out: Antimicrobial activity (MIC)
[8] = Pseudomonas aeruginosa, read-out: Antimicrobial activity (MIC)

With `CC(C)(C)c1cc(CC2(Cc3cc(C(C)(C)C)cc(C(C)(C)C)c3)C(=O)N(CCCCN)C(=O)N(CCCCN)C2=O)cc(C(C)(C)C)c1` [7(iii), 1,3-bis(4-aminobutyl)-5,5-bis(3,5-di-tert-butylbenzyl)-pyrimidin-2,4,6(1H,3H,5H)-trione] the MIC (E. coli 50639799; [5]) was 4 mg/L (≈ 5.93 µM), the “selectivity index (EC50/MIC)” value (E. coli 50639799; RBC EC50 / MIC) was “(<1)” and the MIC (E. coli 50579417; [5]) was 4 mg/L (≈ 5.93 µM). For the same molecule, the “selectivity index (EC50/MIC)” value (E. coli 50579417; RBC EC50 / MIC) was “(<1)”, the MIC (E. coli 50857972; [5]) was 4 mg/L (≈ 5.93 µM) and the “selectivity index (EC50/MIC)” value (E. coli 50857972; RBC EC50 / MIC) was “(<1)”. The MIC (E. coli 50676002; Escherichia coli, 50676002, read-out: Antimicrobial activity (MIC)) was 8 mg/L (≈ 11.9 µM), the “selectivity index (EC50/MIC)” value (E. coli 50676002; RBC EC50 / MIC, E. coli 50676002) was “(<0.5” and the MIC (E. faecium 50673722; [6]) was 2 mg/L (≈ 2.96 µM). The “selectivity index (EC50/MIC)” value (E. faecium 50673722; RBC EC50 / MIC) was “(<2)”, the MIC (E. faecium TUH50-22; Enterococcus faecium, TUH5022, read-out: Antimicrobial activity (MIC)) was 2 mg/L (≈ 2.96 µM) and the “selectivity index (EC50/MIC)” value (E. faecium TUH50-22; RBC EC50 / MIC) was “(<2)”. The MIC (E. faecium K36-18; Enterococcus faecium, K3618, read-out: Antimicrobial activity (MIC)) was 2 mg/L (≈ 2.96 µM), the “selectivity index (EC50/MIC)” value (E. faecium K36-18; RBC EC50 / MIC, E. faecium K36-18) was “(<2)” and the MIC (E. faecium 50758899; [6]) was 2 mg/L (≈ 2.96 µM). The “selectivity index (EC50/MIC)” value (E. faecium 50758899; RBC EC50 / MIC) was “(<2)”, the MIC (E. faecium 50901530; [6]) was 2 mg/L (≈ 2.96 µM) and the “selectivity index (EC50/MIC)” value (E. faecium 50901530; RBC EC50 / MIC) was “(<2)”. It also gave an MIC [1] of 2 to 16 mg/L (≈ 2.96 to 23.7 µM), an MIC [2] of 2 mg/L (≈ 2.96 µM) and an MIC [3] of 1 mg/L (≈ 1.48 µM). For the same molecule, the MIC [4] was 4 mg/L (≈ 5.93 µM), the MIC (K. pneumoniae 50667959; [7]) was 8 mg/L (≈ 11.9 µM) and the “selectivity index (EC50/MIC)” value (K. pneumoniae 50667959; RBC EC50 / MIC) was “(<0.5)”. For the same molecule, the MIC (K. pneumoniae K66-45; Klebsiella pneumoniae, K6645, read-out: Antimicrobial activity (MIC)) was 8 mg/L (≈ 11.9 µM), the “selectivity index (EC50/MIC)” value (K. pneumoniae K66-45; RBC EC50 / MIC, K. pneumoniae K66-45) was “(<0.5)” and the MIC (K. pneumoniae K47-25; Klebsiella pneumoniae, K4725, 24 h, read-out: Antimicrobial activity (MIC)) was 16 mg/L (≈ 23.7 µM). The “selectivity index (EC50/MIC)” value (K. pneumoniae K47-25; RBC EC50 / MIC, K. pneumoniae K47-25, resistant to colistin) was “(<2.5)”, the MIC (K. pneumoniae 50625602; [7]) was 8 mg/L (≈ 11.9 µM) and the “selectivity index (EC50/MIC)” value (K. pneumoniae 50625602; RBC EC50 / MIC) was “(<0.5)”. The MIC (K. pneumoniae 50531633; Klebsiella pneumoniae, 24 h, read-out: Antimicrobial activity (MIC)) was 8 mg/L (≈ 11.9 µM), the “selectivity index (EC50/MIC)” value (K. pneumoniae 50531633; RBC EC50 / MIC) was “(<0.5)” and the MIC (P. aeruginosa 50692520; [8]) was 8 mg/L (≈ 11.9 µM). For the same molecule, the “selectivity index (EC50/MIC)” value (P. aeruginosa 50692520; RBC EC50 / MIC) was “(<0.5)”, the MIC (P. aeruginosa K34-73; Pseudomonas aeruginosa, K3473, read-out: Antimicrobial activity (MIC)) was 16 mg/L (≈ 23.7 µM) and the “selectivity index (EC50/MIC)” value (P. aeruginosa K34-73; RBC EC50 / MIC, P. aeruginosa K34-73) was “(<2.5)”. For the same molecule, the MIC (P. aeruginosa K34-7; Pseudomonas aeruginosa, K347, read-out: Antimicrobial activity (MIC)) was 8 mg/L (≈ 11.9 µM), the “selectivity index (EC50/MIC)” value (P. aeruginosa K34-7; RBC EC50 / MIC, P. aeruginosa K34-7) was “(<0.5)” and the MIC (P. aeruginosa K44-24; Pseudomonas aeruginosa, K4424, read-out: Antimicrobial activity (MIC)) was 8 mg/L (≈ 11.9 µM). The “selectivity index (EC50/MIC)” value (P. aeruginosa K44-24; RBC EC50 / MIC) was “(<0.5)”, the MIC (P. aeruginosa 50692172; [8]) was 8 mg/L (≈ 11.9 µM) and the “selectivity index (EC50/MIC)” value (P. aeruginosa 50692172; RBC EC50 / MIC) was “(<0.5)”.
